In ChEMBL document CHEMBL1201862, “PubChem BioAssay data set” (2004):
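How tested: cells in 96-well plates exposed to compound for 48 hours at five concentrations. Abbreviation: GI50, concentration required for 50% inhibition of growth.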 Active and inactive are the calls of the source. No stated cut-off is given here; in the data, active = GI50 up to about 1.1 µM and inactive = higher.

Columns and labels:
Test in all cases: DTP human tumour cell line panel, 48 h
[1] = system: DMS-273
[2] = system: HOP-18
[3] = system: KM-20L2
[4] = system: M19-MEL
[5] = system: RXF 631
[6] = system: SNB-78
[7] = system: XF498
[8] = system: BT-549
[9] = system: MCF7

Compound	GI50 [1]	GI50 [2]	GI50 [3]	GI50 [4]	GI50 [5]	GI50 [6]	GI50 [7]	GI50 [8]	GI50 [9]
Cc1cccc(C(C)C)c1NC(=O)C(=O)CC(=O)c1c(C)[n+]([O-])c2ccccc2[n+]1[O-]	33.8 µM (inactive)	96.4 µM (inactive)	37.6 µM (inactive)	19.8 µM (inactive)	18.1 µM (inactive)	49 µM (inactive)	–	–	–
COc1cc(/C=C2\NC(=O)C(Cc3cc(OC)c(OC)c(C)c3OC)N(C(C)=O)C2=O)c(OC)c(C)c1OC (stereo not given)	> 100 µM (inactive)	28.6 µM (inactive)	> 100 µM (inactive)	> 100 µM (inactive)	–	–	–	–	–
Cc1cc2c(=O)cc(-c3ccc(F)cc3)oc2c(C(=O)O)c1C	> 100 µM (inactive)	> 100 µM (inactive)	> 100 µM (inactive)	> 100 µM (inactive)	> 100 µM (inactive)	> 100 µM (inactive)	> 100 µM (inactive)	–	–
COC(=O)C1CC(C(=O)OC)c2nc3cc([N+](=O)[O-])ccc3nc21 (stereo not given)	44.5 µM (inactive)	> 100 µM (inactive)	63.7 µM (inactive)	61 µM (inactive)	> 73.3 µM (inactive)	> 100 µM (inactive)	> 96.6 µM (inactive)	–	–
CC1(C)C(=NN=C(N)N)C(C)(C)C1=NN=C(N)N	> 100 µM (inactive)	–	> 100 µM (inactive)	> 100 µM (inactive)	> 100 µM (inactive)	> 100 µM (inactive)	> 100 µM (inactive)	–	–
Cc1cc(=O)c2c(O)cc3c(c2o1)CC=C(COC1OC(COC2OC(CO)C(O)C(O)C2O)C(O)C(O)C1O)CO3 (stereo not given)	> 100 µM (inactive)	–	> 100 µM (inactive)	> 100 µM (inactive)	–	> 100 µM (inactive)	> 100 µM (inactive)	–	–
BrC1=CC=C2NC=CC3=CC=NC1C32 (stereo not given)	7.14 µM (inactive)	14.1 µM (inactive)	19.7 µM (inactive)	14.1 µM (inactive)	27.2 µM (inactive)	29.6 µM (inactive)	22.9 µM (inactive)	–	–
Fc1ccc2c(c1)nc1n2C(c2c(Cl)cccc2Cl)SC1 (stereo not given)	–	–	–	–	–	–	–	16.7 µM (inactive)	15.1 µM (inactive)
COC(=O)C1=C(O)c2cc(OC)c(OC)cc2C(c2ccc(OC)c(OC)c2)C1 (stereo not given)	67.3 µM (inactive)	> 100 µM (inactive)	86.7 µM (inactive)	> 100 µM (inactive)	49.1 µM (inactive)	> 100 µM (inactive)	94.6 µM (inactive)	–	–
O=C1C(Cl)C(c2cc3cc(Br)ccc3nc2Cl)N1c1ccc(Cl)cc1 (stereo not given)	–	–	–	–	–	–	–	4.4 µM (inactive)	3.74 µM (inactive)
COc1ccc2c3c1C(=O)CCC3CO2 (stereo not given)	> 100 µM (inactive)	–	> 100 µM (inactive)	> 100 µM (inactive)	> 100 µM (inactive)	> 100 µM (inactive)	> 100 µM (inactive)	–	–
CC1(C)CC2CC(CC(C)(C)C2=O)C1=O	> 100 µM (inactive)	> 100 µM (inactive)	> 100 µM (inactive)	> 100 µM (inactive)	> 100 µM (inactive)	> 100 µM (inactive)	> 100 µM (inactive)	–	–
O=C(NCc1ccc(Cl)cc1)c1cc2sccc2nc1C(F)(F)F	–	–	–	–	–	–	–	39.9 µM (inactive)	61 µM (inactive)
O=C(Nc1ccc(Cl)cc1)c1cc(S(=O)(=O)Nc2n[nH]c(Nc3ccc4ccccc4c3)n2)c(SSc2cc(Cl)c(C(=O)Nc3ccc(Cl)cc3)cc2S(=O)(=O)Nc2n[nH]c(Nc3ccc4ccccc4c3)n2)cc1Cl	–	–	–	–	–	–	–	24.4 µM (inactive)	25.8 µM (inactive)
COC(=O)c1ccccc1/C=C1\Cc2cc(C)c(C)cc2C1=O	–	–	–	–	–	–	–	34.5 µM (inactive)	> 100 µM (inactive)
COc1ccccc1Nc1nc(N)nc(N)c1N=O	–	–	–	–	–	–	–	> 100 µM (inactive)	> 100 µM (inactive)
CC#C[P+](c1ccccc1)(c1ccccc1)c1ccccc1	2.11 µM (inactive)	11.7 µM (inactive)	6.71 µM (inactive)	2.9 µM (inactive)	–	4.33 µM (inactive)	2.39 µM (inactive)	–	–
Cc1ccc(-c2nnc(-c3nn(-c4ccccc4)c4nc5ccccc5nc34)o2)cc1	20.1 µM (inactive)	27.9 µM (inactive)	42.4 µM (inactive)	22.1 µM (inactive)	–	19.8 µM (inactive)	11.4 µM (inactive)	–	–
CCO/C=C1\N=C(C(Cl)c2ccccc2)OC1=O (stereo not given)	> 100 µM (inactive)	–	> 100 µM (inactive)	> 100 µM (inactive)	–	> 100 µM (inactive)	> 100 µM (inactive)	–	–
Cc1nc2c(cc1OCc1ccccc1)C(=O)C1=C(C2=O)C2OC(=O)CC2OC1(C)C (stereo not given)	–	–	–	–	–	–	–	0.564 µM (active)	0.173 µM (active)
C=C(C(=O)OC)c1cc2ccccc2n1S(=O)(=O)c1ccccc1	–	–	–	–	–	–	–	1.73 µM (inactive)	1.38 µM (inactive)
COc1ccc2c(ccc3c(COC(=O)NC(C)C)c(COC(=O)NC(C)C)n(C)c32)c1	–	–	–	–	–	–	–	11.9 µM (inactive)	4.75 µM (inactive)
CCCCOC(=O)C(NC(C(=O)OCCCC)c1cc(C(C)(C)C)c(O)c(C(C)(C)C)c1)c1cc(C(C)(C)C)c(O)c(C(C)(C)C)c1 (stereo not given)	–	–	–	–	–	–	–	> 100 µM (inactive)	> 100 µM (inactive)
COC(OC)c1cccc2c1C1(O)CCC3(CC21)OCCCCO3 (stereo not given)	> 100 µM (inactive)	> 100 µM (inactive)	> 100 µM (inactive)	> 100 µM (inactive)	–	> 100 µM (inactive)	–	–	–

Compound	GI50 [1]	GI50 [2]	GI50 [3]	GI50 [4]	GI50 [5]	GI50 [6]	GI50 [7]	GI50 [8]	GI50 [9]
O=C(c1ccccc1)N1CCc2c([nH]c3ccccc23)C1	30.7 µM (inactive)	52.6 µM (inactive)	54.1 µM (inactive)	36.8 µM (inactive)	> 100 µM (inactive)	–	20.8 µM (inactive)	–	–
C=C(CN(C)C)C(=O)c1ccc(C(=O)C(=C)CN(C)C)cc1	–	> 100 µM (inactive)	> 100 µM (inactive)	> 100 µM (inactive)	–	–	> 100 µM (inactive)	–	–
O=C(O)CCNS(=O)(=O)c1ccc([N+](=O)[O-])cc1	> 100 µM (inactive)	> 100 µM (inactive)	> 100 µM (inactive)	> 100 µM (inactive)	> 100 µM (inactive)	–	> 100 µM (inactive)	–	–
CC(=O)Oc1cc2c(=O)oc3c(OC(C)=O)c(OC(C)=O)c(OC(C)=O)c4c(=O)oc(c1OC(C)=O)c2c34	> 100 µM (inactive)	32.1 µM (inactive)	35.3 µM (inactive)	17.9 µM (inactive)	25.4 µM (inactive)	39.4 µM (inactive)	32.5 µM (inactive)	–	–
COc1ccc(C(c2ccc3c(c2)OCO3)N2C(=O)CCC2C(=O)O)cc1 (stereo not given)	–	–	–	–	–	–	–	> 100 µM (inactive)	> 100 µM (inactive)
NNC(=O)C(O)C(O)C(O)CO (stereo not given)	–	–	–	–	–	–	–	> 100 µM (inactive)	> 100 µM (inactive)
O=C1N(c2ccccc2)C(=O)C2(SC=NN2Cc2ccccc2)N1c1ccccc1 (stereo not given)	–	> 100 µM (inactive)	> 100 µM (inactive)	> 100 µM (inactive)	–	> 100 µM (inactive)	> 100 µM (inactive)	–	–
CC1=NN(C(=O)CC(=O)Nc2ccccc2)C(=O)C1/N=N/c1ccc(S(N)(=O)=O)cc1 (stereo not given)	63.5 µM (inactive)	> 100 µM (inactive)	> 100 µM (inactive)	–	91.6 µM (inactive)	88.9 µM (inactive)	56.8 µM (inactive)	–	–
Cc1ccc(S(=O)(=O)c2c3nc4ccccc4nc3n3c2[nH]c2ccccc23)cc1	88.7 µM (inactive)	–	> 100 µM (inactive)	> 100 µM (inactive)	–	> 100 µM (inactive)	> 100 µM (inactive)	–	–
CCOc1cccc2ccc[n+](CC)c12	35.8 µM (inactive)	> 100 µM (inactive)	52.2 µM (inactive)	41 µM (inactive)	> 100 µM (inactive)	–	42.9 µM (inactive)	–	–
CC1(C)O[C@@H](CCl)C[C@@H](C#N)O1	> 100 µM (inactive)	> 100 µM (inactive)	> 100 µM (inactive)	> 100 µM (inactive)	–	> 100 µM (inactive)	–	–	–
O=C1OC(c2ccccc2)=N/C1=C\c1ccc(Cl)cc1	–	–	–	–	–	–	–	> 100 µM (inactive)	> 100 µM (inactive)
O=C(O)CSc1nnc(Cc2ccccc2)[nH]1	–	> 100 µM (inactive)	–	> 100 µM (inactive)	> 100 µM (inactive)	> 100 µM (inactive)	15.7 µM (inactive)	–	–
COc1cc2c(oc(=O)c3c4occc4cc(OC)c23)c2cccc(O)c12	> 100 µM (inactive)	> 100 µM (inactive)	> 100 µM (inactive)	> 100 µM (inactive)	–	> 100 µM (inactive)	> 100 µM (inactive)	–	–
COCN1C(N)=C(C(=O)OC(C)(C)C)C2=CC(=O)C=CC21C (stereo not given)	–	–	–	–	–	–	–	4.24 µM (inactive)	11 µM (inactive)
CSCCC(C(=O)O)N(C)C (stereo not given)	–	–	–	–	–	–	–	> 100 µM (inactive)	> 100 µM (inactive)
Nc1ccc(C(=O)NN2C(=O)C(Cl)C2c2ccccc2Cl)cc1 (stereo not given)	3.2 µM (inactive)	3.1 µM (inactive)	15.8 µM (inactive)	7.94 µM (inactive)	–	15.7 µM (inactive)	17.5 µM (inactive)	–	–
CC(C)N(C(C)C)S(=O)(=O)C[C@]12CC[C@H](CC13OCC(CS(=O)(=O)c1ccccc1)O3)C2(C)C (stereo not given in full)	–	–	–	–	–	–	–	> 85.3 µM (inactive)	36 µM (inactive)
CCOC(=O)c1c(N2CCOCC2)[nH]c(=O)c(C(c2ccc(Cl)c([N+](=O)[O-])c2)c2c(O)c(C(=O)OCC)c(N3CCOCC3)[nH]c2=O)c1O	–	–	–	–	–	–	–	24.4 µM (inactive)	22 µM (inactive)
CC(C)NC1CCCCC2c3cc(F)ccc3[C@]12O (stereo not given in full)	> 100 µM (inactive)	> 100 µM (inactive)	> 100 µM (inactive)	> 100 µM (inactive)	–	> 100 µM (inactive)	–	–	–
C[C@@]12CCCC(=O)N1[C@@H](CO)C(c1ccccc1)O2 (stereo not given in full)	> 100 µM (inactive)	> 100 µM (inactive)	> 100 µM (inactive)	> 100 µM (inactive)	–	> 100 µM (inactive)	> 100 µM (inactive)	–	–
C[C@@H](c1ccccc1)N(CC#N)C1CCC[C@H]1O (stereo not given in full)	> 100 µM (inactive)	> 100 µM (inactive)	> 100 µM (inactive)	> 100 µM (inactive)	> 100 µM (inactive)	> 100 µM (inactive)	> 100 µM (inactive)	–	–
Cn1cnc([N+](=O)[O-])c1SC1=NCCS1	98.6 µM (inactive)	4.24 µM (inactive)	–	49.4 µM (inactive)	–	42.9 µM (inactive)	> 100 µM (inactive)	–	–
CC#C[I+]c1ccccc1	13.1 µM (inactive)	16.6 µM (inactive)	17 µM (inactive)	17.8 µM (inactive)	31.1 µM (inactive)	22.7 µM (inactive)	16.7 µM (inactive)	–	–
